# Measured values as given in US8759334B2, “Compounds useful for the treatment of metabolic and inflammatory diseases” (Galapagos NV, priority 2011, dated 2014).
# Target: T1, GPR43 (Homo sapiens, UniProt O15552)
# T1 construct: expressed in transfected cells
# T1 sequence (O15552 1-330): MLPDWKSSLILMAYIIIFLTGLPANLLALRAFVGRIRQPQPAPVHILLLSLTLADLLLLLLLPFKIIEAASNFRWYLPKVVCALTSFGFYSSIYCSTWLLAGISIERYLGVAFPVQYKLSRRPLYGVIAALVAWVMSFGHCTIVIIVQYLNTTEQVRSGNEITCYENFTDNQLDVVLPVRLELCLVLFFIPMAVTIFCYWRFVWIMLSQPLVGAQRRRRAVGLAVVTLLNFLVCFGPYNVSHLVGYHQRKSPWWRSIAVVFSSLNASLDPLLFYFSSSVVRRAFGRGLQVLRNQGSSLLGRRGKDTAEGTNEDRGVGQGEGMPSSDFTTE
# Test: Calcium mobilization assay with probenecid
# Format: cell-based
# Conditions: GPR43 stably expressing cells; triggered with sodium acetate at EC80; 2.5 mM probenecid; read-out: GPR43 assay with probenicid IC50
# Outline: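 Cells stably expressing GPR43 plated overnight at 37 °C, then loaded 2 h with Calcium 4 dye plus 2.5 mM probenecid. […]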
row,Structure (SMILES),IC50
1,"Cc1cc(C)cc(NC(=O)N2CCC2(C)C(=O)N(CCCC(=O)O)Cc2ccc(Cl)cc2)c1 (stereo not drawn) [Compound 200, 4-{(4-chloro-benzyl)-[1-(3,5-dimethyl-phenylcarbamoyl)-2-methyl-azetidine-2-carbonyl]-amino}-butyric acid]",> 1000 nM
2,"Cc1cc(C)cc(N(C)C(=O)N2CCC2(C)C(=O)N(CCCC(=O)O)Cc2ccc(Cl)cc2)c1 (stereo not drawn) [Compound 201, 4-((4-Chloro-benzyl)-{1-[(3,5-dimethyl-phenyl)-methyl-carbamoyl]-2-methyl-azetidine-2-carbonyl}-amino)-butyric acid]",> 1000 nM
3,"CC1(C(=O)N(CCCC(=O)O)Cc2ccc(Cl)cc2)CCN1C(=O)Oc1ccccc1Cl (stereo not drawn) [Compound 202, 2-[(3-Carboxy-propyl)-(4-chloro-benzyl)-carbamoyl]-2-methyl-azetidine-1-carboxylic acid 2-chloro-phenyl ester]",> 1000 nM
4,"CC(C)C1(C(=O)N(CCCC(=O)O)Cc2cccc(Cl)c2)CCN1C(=O)c1csc2ccccc12 (stereo not drawn) [Compound 203, 4-[[1-(Benzo[b]thiophene-3-carbonyl)-2-isopropyl-azetidine-2-carbonyl]-(3-chloro-benzyl)-amino]-butyric acid]",0.01 to 100 nM
5,"CCCC1(C(=O)N(CCCC(=O)O)Cc2cccc(Cl)c2)CCN1C(=O)c1csc2ccccc12 (stereo not drawn) [Compound 204, 4-[[1-(Benzo[b]thiophene-3-carbonyl)-2-propyl-azetidine-2-carbonyl]-(3-chloro-benzyl)-amino]-butyric acid]",0.01 to 100 nM
6,"Cc1ccccc1OC(=O)N1CCC1(C)C(=O)N(CCCC(=O)O)Cc1ccc(Cl)cc1 (stereo not drawn) [Compound 205, 2-[(3-Carboxy-propyl)-(4-chloro-benzyl)-carbamoyl]-2-methyl-azetidine-1-carboxylic acid o-tolyl ester]",> 1000 nM
7,"CC1(C(=O)N(CCCS(N)(=O)=O)c2ccc(Cl)cc2)CCN1C(=O)c1csc2ccccc12 (stereo not drawn) [Compound 206, 1-(Benzo[b]thiophene-3-carbonyl)-2-methyl-azetidine-2-carboxylic acid (4-chloro-phenyl)-(3-sulfamoyl-propyl)-amide]",0.01 to 100 nM
8,"C[C@]1(C(=O)N(CCCC(=O)NS(C)(=O)=O)Cc2cccc(Cl)c2)CCN1C(=O)c1csc2ccccc12 [Compound 207, (R)-1-(benzo[b]thiophene-3-carbonyl)-N-(3-chlorobenzyl)-2-methyl-N-(4-(methylsulfonamido)-4-oxobutyl)azetidine-2-carboxamide]",0.01 to 100 nM
9,"CCC1(C(=O)N(CCCS(N)(=O)=O)Cc2cccc(Cl)c2)CCN1C(=O)c1csc2ccccc12 (stereo not drawn) [Compound 208, 1-(benzo[b]thiophene-3-carbonyl)-N-(3-chlorobenzyl)-2-ethyl-N-(3-sulfamoylpropyl)azetidine-2-carboxamide]",0.01 to 100 nM
10,"C[C@@H](c1ccc(Cl)cc1)N(CCCS(N)(=O)=O)C(=O)C1(C)CCN1C(=O)c1csc2ccccc12 (stereo partly drawn) [Compound 209, 1-(benzo[b]thiophene-3-carbonyl)-N-((S)-1-(4-chlorophenyl)ethyl)-2-methyl-N-(3-sulfamoylpropyl)azetidine-2-carboxamide]",101 to 500 nM
11,"CC1(C(=O)N(CCCC(=O)O)Cc2ccc(Cl)cc2)CCN1C(=O)Oc1ccccc1F (stereo not drawn) [Compound 210, 4-(N-(4-chlorobenzyl)-1-((2-fluorophenoxy)carbonyl)-2-methylazetidine-2-carboxamido)butanoic acid]",> 1000 nM
12,"CC1(C(=O)N(CCCC(=O)O)Cc2ccc(Cl)cc2)CCN1C(=O)Oc1csc2ccccc12 (stereo not drawn) [Compound 211, 4-(1-((benzo[b]thiophen-3-yloxy)carbonyl)-N-(4-chlorobenzyl)-2-methylazetidine-2-carboxamido)butanoic acid]",0.01 to 100 nM
13,"Cc1ccc(OC(=O)N2CCC2(C)C(=O)N(CCCC(=O)O)Cc2ccc(Cl)cc2)c(C)c1 (stereo not drawn) [Compound 213, 4-(N-(4-chlorobenzyl)-1-((2,4-dimethylphenoxy)carbonyl)-2-methylazetidine-2-carboxamido)butanoic acid]",> 1000 nM
14,"COc1ccc(Cl)c(OC(=O)N2CCC2(C)C(=O)N(CCCC(=O)O)Cc2ccc(Cl)cc2)c1 (stereo not drawn) [Compound 215, 4-(1-((2-chloro-5-methoxyphenoxy)carbonyl)-N-(4-chlorobenzyl)-2-methylazetidine-2-carboxamido)butanoic acid]",> 1000 nM
15,"CCC1(C(=O)N(CCCS(N)(=O)=O)Cc2ccc(Cl)cc2)CCN1C(=O)c1csc2ccccc12 (stereo not drawn) [Compound 216, 1-(benzo[b]thiophene-3-carbonyl)-N-(4-chlorobenzyl)-2-ethyl-N-(3-sulfamoylpropyl)azetidine-2-carboxamide]",101 to 500 nM
16,"CC(C)C1(C(=O)N(CCCS(N)(=O)=O)Cc2cccc(Cl)c2)CCN1C(=O)c1csc2ccccc12 (stereo not drawn) [Compound 217, 1-(benzo[b]thiophene-3-carbonyl)-N-(3-chlorobenzyl)-2-isopropyl-N-(3-sulfamoylpropyl)azetidine-2-carboxamide]",101 to 500 nM
17,"COc1cccc(OC(=O)N2CCC2(C)C(=O)N(CCCC(=O)O)Cc2ccc(Cl)cc2)c1 (stereo not drawn) [Compound 218, 4-(N-(4-chlorobenzyl)-1-((3-methoxyphenoxy)carbonyl)-2-methylazetidine-2-carboxamido)butanoic acid]",101 to 500 nM
18,"O=C(O)CCCN(Cc1cccc(Cl)c1)C(=O)C1(Cc2ccc(F)cc2)CCN1C(=O)c1csc2ccccc12 (stereo not drawn) [Compound 219, 4-(1-(benzo[b]thiophene-3-carbonyl)-N-(3-chlorobenzyl)-2-(4-fluorobenzyl)azetidine-2-carboxamido)butanoic acid]",101 to 500 nM
19,"Cc1cccc(CC2(C(=O)N(CCCC(=O)O)Cc3cccc(Cl)c3)CCN2C(=O)c2csc3ccccc23)c1 (stereo not drawn) [Compound 220, 4-(1-(benzo[b]thiophene-3-carbonyl)-N-(3-chlorobenzyl)-2-(3-methylbenzyl)azetidine-2-carboxamido)butanoic acid]",501 to 1000 nM
20,"COc1cccc(CC2(C(=O)N(CCCC(=O)O)Cc3cccc(Cl)c3)CCN2C(=O)c2csc3ccccc23)c1 (stereo not drawn) [Compound 221, 4-(1-(benzo[b]thiophene-3-carbonyl)-N-(3-chlorobenzyl)-2-(3-methoxybenzyl)azetidine-2-carboxamido)butanoic acid]",101 to 500 nM
21,"O=C(O)CCCN(Cc1cccc(Cl)c1)C(=O)C1(Cc2cccc(C(F)(F)F)c2)CCN1C(=O)c1csc2ccccc12 (stereo not drawn) [Compound 222, 4-(1-(benzo[b]thiophene-3-carbonyl)-N-(3-chlorobenzyl)-2-(3-(trifluoromethyl)benzyl)azetidine-2-carboxamido)butanoic acid]",> 1000 nM
22,"Cc1ccc(OC(=O)N2CCC2(C)C(=O)N(CCCC(=O)O)Cc2ccc(Cl)cc2)c(Cl)c1 (stereo not drawn) [Compound 223, 4-(1-((2-chloro-4-methylphenoxy)carbonyl)-N-(4-chlorobenzyl)-2-methylazetidine-2-carboxamido)butanoic acid]",> 1000 nM
23,"COc1ccc(OC(=O)N2CCC2(C)C(=O)N(CCCC(=O)O)Cc2ccc(Cl)cc2)c(Cl)c1 (stereo not drawn) [Compound 224, 4-(1-((2-chloro-4-methoxyphenoxy)carbonyl)-N-(4-chlorobenzyl)-2-methylazetidine-2-carboxamido)butanoic acid]",> 1000 nM
24,"O=C(O)CCCN(Cc1cccc(Cl)c1)C(=O)C1(Cc2ccc(Cl)cc2)CCN1C(=O)c1csc2ccccc12 (stereo not drawn) [Compound 225, 4-(1-(benzo[b]thiophene-3-carbonyl)-N-(3-chlorobenzyl)-2-(4-chlorobenzyl)azetidine-2-carboxamido)butanoic acid]",501 to 1000 nM
25,"CC1(C(=O)N(CCCC(=O)O)Cc2ccc(Cl)cc2)CCN1C(=O)Oc1ccc(C(F)(F)F)cc1 (stereo not drawn) [Compound 226, 4-(N-(4-chlorobenzyl)-2-methyl-1-((4-(trifluoromethyl)phenoxy)carbonyl)azetidine-2-carboxamido)butanoic acid]",> 1000 nM
26,"CSc1ccc(OC(=O)N2CCC2(C)C(=O)N(CCCC(=O)O)Cc2ccc(Cl)cc2)cc1 (stereo not drawn) [Compound 227, 4-(N-(4-chlorobenzyl)-2-methyl-1-((4-(methylthio)phenoxy)carbonyl)azetidine-2-carboxamido)butanoic acid]",501 to 1000 nM
27,"CCC1(C(=O)N(CCCC(=O)NS(C)(=O)=O)Cc2cccc(Cl)c2)CCN1C(=O)c1csc2ccccc12 (stereo not drawn) [Compound 228, 1-(benzo[b]thiophene-3-carbonyl)-N-(3-chlorobenzyl)-2-ethyl-N-(4-(methylsulfonamido)-4-oxobutyl)azetidine-2-carboxamide]",0.01 to 100 nM
28,"C=CCC1(C(=O)N(CCCC(=O)NS(C)(=O)=O)Cc2cccc(Cl)c2)CCN1C(=O)c1csc2ccccc12 (stereo not drawn) [Compound 229, 2-allyl-1-(benzo[b]thiophene-3-carbonyl)-N-(3-chlorobenzyl)-N-(4-(methylsulfonamido)-4-oxobutyl)azetidine-2-carboxamide]",0.01 to 100 nM
29,"CS(=O)(=O)NC(=O)CCCN(Cc1cccc(Cl)c1)C(=O)C1(Cc2ccccc2)CCN1C(=O)c1csc2ccccc12 (stereo not drawn) [Compound 230, 1-(benzo[b]thiophene-3-carbonyl)-2-benzyl-N-(3-chlorobenzyl)-N-(4-(methylsulfonamido)-4-oxobutyl)azetidine-2-carboxamide]",101 to 500 nM
30,"C[C@@H](c1cccc(Cl)c1)N(CCCC(=O)NS(C)(=O)=O)C(=O)[C@@]1(C)CCN1C(=O)c1csc2ccccc12 [Compound 231, (R)-1-(benzo[b]thiophene-3-carbonyl)-N-((S)-1-(3-chlorophenyl)ethyl)-2-methyl-N-(4-(methylsulfonamido)-4-oxobutyl)azetidine-2-carboxamide]",0.01 to 100 nM
